Legend:
h4B1 = h4B1 (Homo sapiens, UniProt Q07343); assay: In-vitro assay for PDE4 enzymes, real-time enzyme-coupled spectrophotometric assay (Table 3); format: biochemical
Protocol: (§1) In-vitro assay for PDE4 enzymes. The in-vitro activity of PDE4 enzymes and the in-vitro potency of therapeutic agents described in the present invention was measured using a real-time, enzyme-coupled spectrophotometric assay. By using three different coupling enzymes, the product of the PDE4 reaction is coupled to the oxidation of the reduced form β-nicotinamide adenine dinucleotide (NADH), which dissipation can be monitored spectrophotmetrically at […]. Assay description. Buffer A containing 50 mM Tris, pH 8.0, 16 mM MgCl2 and 80 mM KCl is prepared and stored at room temperature. Buffer B containing 50 mM Tris, pH 8.0 is prepared and stored at toom temperature. Stock solutions of the following reagents are prepared in Buffer B and stored at −20° C.: Adenosine-5′-triphosphate (ATP), cyclic adenosine-5′-monophosphate (cAMP), phosphoenolpyruvate (PEP) and NADH. An assay mix is prepared by mixing Buffer A, […] (TCEP), ATP, PEP, NADH, myokinase (MK), pyruvate kinase (PK), lactate dehydroganese (LDH) and PDE4 to a final volume of 20 mL, which is enough for a single 96-well assay plate. Assay mix (180 μL) and test article (10 μL) in 1:1 DMSO/H2O mixture is pre-incubated at room temperature for 10 min. The enzymatic reaction is initiated by addition of cAMP (10 μL). Final concentration of all components in the assay (200 μL/well) are as follows: 10 mM MgCl2, 50 mM KCl, 5 mM TCEP, 2.5% DMSO, 0.4 mM NADH, 1 mM PEP, 0.04 mM ATP, 5 units MK, 1 unit PK, 1 unit LDH and appropriate amount of PDE4. Reaction progress curves are monitored in a plate reader capable of measuring light absorbance at 340 nm. A decrease in light absorbance at 340 nm is due to oxidation of NADH. Positive controls containing no test article and negative controls containing no test article and no cAMP are included on every assay plate. Reaction rates are determined from the slopes of the linear portions of the progress curves. All data is percent normalized with respect to controls and presented as percent inhibition.

h4D7 = h4D7 (Homo sapiens, UniProt Q08499); assay: as above; format: biochemical
Sequence of h4D7 (Q08499 1-748 isoform Q08499-11): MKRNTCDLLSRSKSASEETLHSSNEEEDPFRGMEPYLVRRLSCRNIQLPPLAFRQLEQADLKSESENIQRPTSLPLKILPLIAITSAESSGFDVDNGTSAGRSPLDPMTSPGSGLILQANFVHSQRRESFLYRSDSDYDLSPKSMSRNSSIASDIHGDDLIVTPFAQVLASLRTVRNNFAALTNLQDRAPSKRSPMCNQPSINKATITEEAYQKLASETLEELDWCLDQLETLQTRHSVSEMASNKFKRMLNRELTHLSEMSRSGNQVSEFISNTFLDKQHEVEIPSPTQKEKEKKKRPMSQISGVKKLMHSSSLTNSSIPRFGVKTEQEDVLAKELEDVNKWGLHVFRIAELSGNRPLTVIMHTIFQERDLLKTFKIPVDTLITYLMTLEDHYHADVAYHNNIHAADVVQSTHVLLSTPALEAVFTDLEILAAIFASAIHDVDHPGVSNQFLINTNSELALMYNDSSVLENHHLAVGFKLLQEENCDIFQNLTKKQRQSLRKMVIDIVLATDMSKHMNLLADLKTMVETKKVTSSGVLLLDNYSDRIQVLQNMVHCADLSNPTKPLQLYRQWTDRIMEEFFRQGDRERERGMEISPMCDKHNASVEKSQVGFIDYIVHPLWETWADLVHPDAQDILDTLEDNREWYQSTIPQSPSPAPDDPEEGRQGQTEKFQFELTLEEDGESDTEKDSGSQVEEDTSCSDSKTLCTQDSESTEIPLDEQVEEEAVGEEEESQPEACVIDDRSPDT
Protocol: as §1

rat model = rat model in vivo; cited from earlier work
rodent models = conditions: multiple rodent models; cited from earlier work
primates = conditions: cited from earlier work
mice = conditions: two separate studies in mice in vivo; cited from earlier work
[1] = system: rat model of Huntington's disease; conditions: cited from earlier work
human = human clinical trials; cited from earlier work
rats = conditions: cited from earlier work
[2] = system: patients suffering from asthma and COPD; conditions: cited from earlier work; for results of administration to patients: asthma and COPD patients, initial

Sequence of h4B1 (Q07343 whole entry): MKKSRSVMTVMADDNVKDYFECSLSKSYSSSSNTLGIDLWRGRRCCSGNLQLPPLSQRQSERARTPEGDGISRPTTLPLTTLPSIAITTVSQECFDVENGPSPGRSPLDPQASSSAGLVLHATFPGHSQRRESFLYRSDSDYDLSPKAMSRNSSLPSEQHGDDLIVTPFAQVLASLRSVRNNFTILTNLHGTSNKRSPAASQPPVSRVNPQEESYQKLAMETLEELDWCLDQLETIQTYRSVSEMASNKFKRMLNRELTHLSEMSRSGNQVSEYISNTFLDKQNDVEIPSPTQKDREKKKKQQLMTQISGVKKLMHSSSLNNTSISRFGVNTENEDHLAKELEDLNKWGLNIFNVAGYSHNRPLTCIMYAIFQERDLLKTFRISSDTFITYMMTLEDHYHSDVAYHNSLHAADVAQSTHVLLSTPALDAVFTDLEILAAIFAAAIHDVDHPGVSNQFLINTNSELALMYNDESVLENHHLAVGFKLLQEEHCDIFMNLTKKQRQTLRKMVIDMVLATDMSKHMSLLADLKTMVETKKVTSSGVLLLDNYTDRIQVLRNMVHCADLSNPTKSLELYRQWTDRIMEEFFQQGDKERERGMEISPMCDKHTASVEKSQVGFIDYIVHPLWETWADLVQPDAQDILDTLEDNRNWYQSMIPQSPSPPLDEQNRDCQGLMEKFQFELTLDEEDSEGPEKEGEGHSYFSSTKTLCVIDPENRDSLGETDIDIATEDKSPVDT

| SMILES | IC50 (h4B1) | IC50 (h4D7) | other results |
| --- | --- | --- | --- |
| Cn1nccc1Cc1cc(-c2ccc3c(c2)OCO3)c2nc(N)sc2c1 [Example 8, 4-Benzo[1,3]dioxol-5-yl-6-(2-methyl-2H-pyrazol-3-ylmethyl)-benzothiazol-2-ylamine] | 1000 to 10000 nM | < 1000 nM |  |
| Nc1nc2c(-c3ccc4c(c3)OCO4)cc(Cn3cccn3)cc2s1 [Example 9, 4-Benzo[1,3]dioxol-5-yl-6-pyrazol-1-ylmethyl-benzothiazol-2-ylamine] | 1000 to 10000 nM | 1000 to 10000 nM |  |
| Nc1nc2c(-c3ccc4c(c3)OCO4)nc(Cc3ccc(F)cc3)nc2s1 [Example 11, 7-Benzo[1,3]dioxol-5-yl-5-(4-fluorobenzyl)-thiazolo[5,4-d]pyrimidin-2-ylamine] | 1000 to 10000 nM | < 1000 nM |  |
| CC(=O)c1cccc(-c2cc(Cn3cccn3)cc3sc(N)nc23)c1 [Example 12, 1-[3-(2-Amino-6-pyrazol-1-ylmethyl-benzothiazol-4-yl)-phenyl]-ethanone] | 1000 to 10000 nM | < 1000 nM |  |
| Nc1nc2c(-c3cccc(Br)c3)cc(Cc3ccc(F)cc3)cc2s1 [Example 13, 4-(3-bromophenyl)-6-(4-fluorobenzyl)-1,3-benzothiazol-2-amine] | 1000 to 10000 nM | < 1000 nM |  |
| CSc1cccc(-c2cc(Cn3cccn3)cc3sc(N)nc23)c1 [Example 14, 4-(3-Methylsulfanyl-phenyl)-6-pyrazol-1-ylmethyl-benzothiazol-2-ylamine] | 1000 to 10000 nM | < 1000 nM |  |
| Nc1ccc(Cc2cc3sc(N)nc3c(-c3cccc([N+](=O)[O-])c3)c2O)cc1 [Example 15, 2-Amino-6-(4-amino-benzyl)-4-(3-nitro-phenyl)-benzothiazol-5-ol] | < 1000 nM | < 1000 nM |  |
| CS(=O)(=O)Nc1ccc(Cc2cc(-c3cccc(Cl)c3)c3nc(N)sc3c2)cc1 [Example 18, N-{4-[2-Amino-4-(3-chloro-phenyl)-benzothiazol-6-ylmethyl]-phenyl}-methanesulfonamide] | 1000 to 10000 nM | < 1000 nM |  |
| CS(=O)(=O)Nc1ccc(Cc2cc3sc(N)nc3c(-c3cccc(Cl)c3)c2F)cc1 [Example 19, N-{4-[2-amino-4-(3-chloro-phenyl)-5-fluoro-benzothiazol-6-ylmethyl]-phenyl}-methanesulfonamide] | 1000 to 10000 nM | 1000 to 10000 nM |  |
| CS(=O)(=O)Nc1ccc(Cc2cc(-c3cccc(Cl)c3)c3nc(N)oc3c2)cc1 [Example 20, N-{4-[2-Amino-4-(3-chloro-phenyl)-benzooxazol-6-ylmethyl]-phenyl}-methanesulfonamide] | 1000 to 10000 nM | < 1000 nM |  |
| NC(=O)Nc1ccc(Cc2cc3sc(N)nc3c(-c3cccc(Cl)c3)c2F)cc1 [Example 21, {4-[2-amino-4-(3-chloro-phenyl)-5-fluoro-benzothiazol-6-ylmethyl]-phenyl}-urea] | < 1000 nM | < 1000 nM |  |
| Cc1nc2c(-c3cccc(Cl)c3)cc(Cc3ccc(N)cc3)cc2o1 [Example 22, 4-{[4-(3-chlorophenyl)-2-methyl-1,3-benzoxazol-6-yl]methyl}aniline] | < 1000 nM | < 1000 nM |  |
| Nc1ccc(Cc2cc3scnc3c(-c3cccc(Cl)c3)c2F)cc1 [Example 23, 4-[4-(3-chloro-phenyl)-5-fluoro-benzothiazol-6-ylmethyl]-phenylamine] | < 1000 nM | < 1000 nM |  |
| Cc1nc2c(-c3cccc(Cl)c3)cc(Cc3ccc(NC(N)=O)cc3)cc2o1 [Example 24, N-(4-{[4-(3-chlorophenyl)-2-methyl-1,3-benzoxazol-6-yl]methyl}phenyl)urea] | < 1000 nM | < 1000 nM |  |
| Nc1ccc(Cc2cc(-c3cccc(Cl)c3)c3ncsc3c2)cc1 [Example 25, 4-[4-(3-Chloro-phenyl)-benzothiazol-6-ylmethyl]-phenylamine] | < 1000 nM | < 1000 nM |  |
| Nc1ccc(Cc2cc(-c3cccc(Cl)c3)c3nc(N)sc3c2)cc1 [Example 26, 6-(4-Amino-benzyl)-4-(3-chloro-phenyl)-benzothiazol-2-ylamine] | < 1000 nM | < 1000 nM |  |
| CCNC(=O)Nc1ccc(Cc2cc3scnc3c(-c3cccc(Cl)c3)c2F)cc1 [Example 30, 1-{4-[4-(3-chloro-phenyl)-5-fluoro-benzothiazol-6-ylmethyl]-phenyl}-3-ethyl-urea] | < 1000 nM | < 1000 nM |  |
| NC(=O)N1CCN(Cc2cc3scnc3c(-c3cccc(Cl)c3)c2F)CC1 [Example 31, 4-[4-(3-Chloro-phenyl)-5-fluoro-benzothiazol-6-ylmethyl]-piperazine-1-carboxylic acid amide] | < 1000 nM | < 1000 nM |  |
| Nc1ccc(Cc2cc(-c3cccc(Cl)c3)c3nc(N)oc3c2)cc1 [Example 32, 6-(4-aminobenzyl)-4-(3-chlorophenyl)-1,3-benzoxazol-2-amine] | < 1000 nM | < 1000 nM |  |
| CCNC(=O)Nc1ccc(Cc2cc3scnc3c(-c3cccc(Cl)c3)c2F)cn1 [Example 33, 1-[5-[4-(3-chloro-phenyl)-5-fluoro-benzothiazol-6-ylmethyl]-pyridin-2-yl]-3-ethyl-urea] | < 1000 nM | < 1000 nM |  |
| COc1ccc(Cc2cc3scnc3c(-c3cccc(Cl)c3)c2F)cn1 [Example 38, 4-(3-chloro-phenyl)-5-fluoro-6-(6-methoxy-pyridin-3-ylmethyl)-benzothiazole] | 1000 to 10000 nM | < 1000 nM |  |
| Oc1cccc(Cc2cc3scnc3c(-c3cccc(Cl)c3)c2F)c1 [Example 39, 3-[4-(3-chloro-phenyl)-5-fluoro-benzothiazol-6-ylmethyl]-phenol] | 1000 to 10000 nM | < 1000 nM |  |
| CCOC(=O)Nc1ccc(Cc2cc3scnc3c(-c3cccc(Cl)c3)c2F)cn1 [Example 40, {5-[4-(3-chloro-phenyl)-5-fluoro-benzothiazol-6-ylmethyl]-pyridin-2-yl}-carbamic acid ethyl ester] | > 30000 nM | < 1000 nM |  |
| CC(=O)N1CCN(Cc2cc3scnc3c(-c3cccc(Cl)c3)c2F)CC1 [Example 44, 1-{4-[4-(3-Chloro-phenyl)-5-fluoro-benzothiazol-6-ylmethyl]-piperazin-1-yl}-ethanone] | 10000 to 20000 nM | 1000 to 10000 nM |  |
| CCOC(=O)NC1CCN(Cc2cc3scnc3c(-c3cccc(Cl)c3)c2F)CC1 [Example 45, {1-[4-(3-Chloro-phenyl)-5-fluoro-benzothiazol-6-ylmethyl]-piperidin-4-yl}-carbamic acid ethyl ester] | 1000 to 10000 nM | < 1000 nM |  |
| Cc1noc(/C(=C/c2cccc(-c3cc(C(C)(C)S(C)(=O)=O)cc4cccnc34)c2)c2ccc(S(C)(=O)=O)cc2)n1 [L-454,560] |  |  | learning (rat model): improve learning |
| COc1ccc(C2CNC(=O)C2)cc1OC1CCCC1 (centres unmarked) [Rolipram] |  |  | cognition (rodent models): enhance cognition; cognition (primates): enhance cognition; outcome in schizophrenia models (mice): improves the outcome; neuroprotection [1]: neuroprotective effect; depression (human): ameliorate depression |
| CCc1ccc2c(-c3cccc(Cl)c3)nc(=O)n(CC)c2n1 [YM976] |  |  | effects of experimentally-induced interstitial cystitis (rats): ameliorate the effects; frequency of urination (rats): decrease; volume of urine at each time of urination (rats): increase |
| COc1ccc([C@]2(C#N)CC[C@@H](C(=O)O)CC2)cc1OC1CCCC1 [cilomilast] |  |  | results of administration to patients [2]: initially excellent results; effect on long-term trial ([2]; long-term trial): disappeared |
| O=C(Nc1c(Cl)cncc1Cl)c1ccc(OC(F)F)c(OCC2CC2)c1 [roflumilast] |  |  | results of administration to patients [2]: initially excellent results |
